Test results as given in US5707821A, “Identification of phospholipase A2 inhibitors in Aβ peptide-mediated neurodegenerative disease” (priority 1995, dated 1998).

Experiments:
[1] = tested on: human cortical neurons; assay: Aβ neurotoxicity / survival of human cortical neurons (alamarBlue), compound added at time of Aβ1-40; assay type: cell-based; conditions: for Max Inh: 50 μM Aβ1-40, compound 390 nM to 100 μM added at time of Aβ, 3 days, n=3
Description: (§1) Cultures of human cortical or hippocampal neurons were prepared using a modification of the procedure described in P. Seubert et al. (1992), Nature 359:325-327. Cortical or hippocampal tissue was dissociated by incubation in a trypsin/EDTA solution (0.05% trypsin +0.53 mM EDTA in HBSS; Gibco) for 20 minutes at 37° C. The trypsin was then inactivated by resuspending the cells in serum-containing medium (MEM/FBS): Modified Eagle's Medium (MEM) containing 1% glucose, 1 mM sodium pyruvate, 1 mM glutamine, and supplemented with 10% fetal bovine serum (Gibco). Cells were then pelleted by centrifugation and resuspended in a chemically-defined medium (MEM/B27): MEM containing B27 supplement (Gibco) in place of FBS. Polyethyleneimine (PEI)-coated 6.4-mm (96-well) dishes were rinsed once with MEM/FBS, and then seeded at 0.75-1.25×10^5 cells per well in 0.1 ml MEM/B27. Cultures were maintained in a H2 O-saturated incubator with an atmosphere of 95% air/5% CO2 at 37° C. The culture medium was exchanged twice weekly.
(§2) Amyloid-β (Aβ) stock solutions were prepared as 1 mM stocks in sterile ddH2 O immediately prior to addition to cultures. Rat cortical neurons were exposed to Aβ by removing the culture medium and replacing it with DMEM/N2 or DMEM/B27 containing Aβ1-40. Human cortical neurons were exposed to Aβ by removing the culture medium and replacing it with MEM, MEM/N2, or MEM/B27 containing Aβ1-40. Cultures were maintained for 2-4 days before neuronal survival was quantified using alamarBlue™.
(§3) The alamarBlue™ assay incorporated a proprietary fluorometric/colorimetric metabolic indicator (Alamar Biosciences, Inc.). Viable cells convert alamarBlue™ from an oxidized (non-fluorescent, blue) form to a reduced (fluorescent, red) form. Assays were performed by replacing the culture media with a 10% alamarBlue™ solution in DMEM (rat cortical cultures) or MEM (human cortical cultures). Reduction of alamarBlue™ was determined spectrofluorometrically using a Millipore Cytofluor 2350 Scanner (excitation, […]; emission, 590 nm) and CytoCalc™ software (Millipore Corporation).
The effect of the two benzenesulfonamide inhibitors of PLA2 in Example 2 were examined to determine the dose-dependence of their effect on neuronal survival in human cortical neuron cultures exposed to 0 μM, 25μM, or 50 μM of Aβ1-40 and varying doses of the benzenesulfonamide.
(§4) Human cortical neurons were treated with 50 μM Aβ1-40 and various inhibitors of PLA2 or PLC. Compounds were added at the time of Aβ1-40 treatment at concentrations 390 nM to 100 μM. Compounds were also added to neuronal cultures in the absence of Aβ1-40. Neuronal survival was determined after 3 days of treatment by alamarBlue®. IC50 is the dose of compound that inhibited Aβ-mediated neurotoxicity by 50%. […] Data represents the mean ± SD (n=3). ND, not detected at the concentration range used.

[2] = tested on: PLC (phosphatidyl choline-phospholipase C); conditions: literature; cited from earlier work
[3] = Compound toxicity to human cortical neurons in absence of Aβ1-40 (alamarBlue, 3 days); assay type: cell-based; conditions: human, cortical neurons
Description: as §1, §3, §4

[4] = tested on: human cortical neurons; assay: as above; assay type: cell-based
Description: as §1, §3, §4

[5] = Compound toxicity to human cortical neurons in absence of Aβ1-40, added as in pretreatment protocol; assay type: cell-based; conditions: human, cortical neurons, no Aβ1-40, 3 days, n=3, ND = not detected at the concentration range used, read-out: TD50 (concentration giving 50% loss of neuronal survival)
Description: as §1, §3
(§5) Human cortical neurons were treated with 50 μM Aβ1-40 and various inhibitors of PLA2. Compounds were added 2 hours prior to Aβ1-40 treatment at concentrations of 390 nM to 100 μM, and were then re-added at the time of Aβ1-40 treatment. Compounds were also added in an identical manner to neuronal cultures in the absence of Aβ1-40. Neuronal survival was determined after 3 days of treatment by alamarBlue®. IC50 is the dose of compound that inhibited Aβ-mediated neurotoxicity by 50%. […] Data represents the mean ± SD (n=3). ND, not detected at the concentration range used.

[6] = tested on: human cortical neurons; assay: as above; assay type: cell-based; conditions: no Aβ1-40, 3 days, n=3
Description: as §1, §3, §5

[7] = tested on: human cortical neurons; assay: Aβ neurotoxicity in human cortical neurons (alamarBlue), 2 h pretreatment with inhibitor; assay type: cell-based; conditions: Homo sapiens, Cortical neurone, 72 h, read-out: Max Inh
Description: as §1, §2, §3
The effect of pretreating human cortical neuron cultures with the benzenesulfonamide PLA2 inhibitors and arachidonyl trifluoromethyl ketone prior to exposure to a neurotoxic concentration of Aβ1-40 was determined.
as §5

[8] = tested on: PLA2; conditions: literature; cited from earlier work
[9] = tested on: AD patients; conditions: selected group of five AD patients; cited from earlier work

| Structure (SMILES) | Max Inh [1] [%] | inhibition of PLC [2] | CC50 at 72 h [5] [µM] | TD10 (concentration giving 10% loss of neuronal survival) [6] [µM] | Emax [7] [%] | other results |
| --- | --- | --- | --- | --- | --- | --- |
| S=C(S)OC1CC2CC1C1CCCC21 (stereo not shown) [AN20602, potassium 8(9)-tricyclo[5.2.1.0^2,6]decyl xanthate] | 25 | PLC inhibitor | – | – | – | enhancing neuronal survival after exposure to Aβ (in words) ([1]; Example 5, FIG. 5, three days): relatively ineffective in enhancing neuronal survival; CC50 at 72 h [3]: 35 µM; TD10 (concentration giving 10% loss of neuronal survival) ([4]; human, 4320 min): 13 µM |
| CC1=C(CC/C(C)=C/CCC2=CC[C@H](C3=CC(=O)O[C@H]3O)O[C@H]2O)C(C)(C)CCC1 [Manoalide] | – | – | 10 | 8 | 49 | – |
| COc1ccc2c(c1)CC[C@@H]1[C@@H]2CC[C@]2(C)[C@@H](NCCCCCCN3C(=O)C=CC3=O)CC[C@@H]12 [U73122, 1-[6-[[(17β)-3-methoxyestra-1,3,5(10)-trien-17-yl]amino]hexyl]-1H-pyrrole-2,5-dione] | 66 | inhibits both PLA2 and PLC | – | – | – | IC50 ([1]; Homo sapiens, Cortical neurone, 72 h, read-out: IC50 (dose that inhibited Aβ-mediated neurotoxicity by 50%)): 9 µM; CC50 at 72 h ([3]; no Aβ1-40, 3 days, 390 nM to 100 μM, n=3, ND = not detected at the concentration range used, read-out: TD50 (concentration giving 50% loss of neuronal survival)): 16 µM; TD10 (concentration giving 10% loss of neuronal survival) ([4]; no Aβ1-40, 3 days, 390 nM to 100 μM, n=3): 11 µM; inhibition of PLA2 [8]: inhibits both PLA2 and PLC |
| COc1ccc2c(c1)c(CC(=O)O)c(C)n2C(=O)c1ccc(Cl)cc1 [indomethacin] | – | – | – | – | – | effects on neuropathological progression [9]: no effects on neuropathological progression were noted; reducing symptomatic progression in AD patients [9]: allegedly useful in reducing symptomatic progression |
| O=C(CBr)c1ccc(Br)cc1 [p-Bromophenacyl Bromide] | – | – | 10 | 8 | 39 | – |
